Measured values taken from ChEMBL document CHEMBL5120770, “Sarubicinols A-C, Cytotoxic Benzoxazoles from a Streptomyces” (J Nat Prod, 2022).

Assays:
Assay type in all cases: functional, cell-based
4T1 = assay: Cytotoxicity against mouse 4T1 cells assessed as cell growth inhibition incubated for 72 hrs by CCK8 assay; conditions: 4T1, 72 h
HCT-116 = assay: Cytotoxicity against human HCT-116 cells assessed as cell growth inhibition incubated for 72 hrs by CCK8 assay; conditions: HCT-116, 72 h
HepG2 = assay: Cytotoxicity against human HepG2 cells assessed as cell growth inhibition incubated for 72 hrs by CCK8 assay; conditions: HepG2, 72 h
A549 = assay: Cytotoxicity against human A549 cells assessed as cell growth inhibition incubated for 72 hrs by CCK8 assay; conditions: A549, 72 h

With `C[C@H]1O[C@@H]2C[C@@H](O)[C@@]1(O)C1=C2C(=O)C(C(N)=O)=C(N)C1=O` the IC50 (4T1) was 0.9 µM, the IC50 (HCT-116) was 0.7 µM and the IC50 (HepG2) was 1.2 µM. The IC50 (A549) was 1.4 µM.

For `C[C@H]1O[C@@H]2C[C@@H](O)[C@@]1(O)c1c2c(O)c(C(N)=O)c2nc([C@@H](O)CO)oc12`, the IC50 (4T1) was 4.8 µM, the IC50 (HCT-116) was 5.6 µM and the IC50 (HepG2) was 8.9 µM. It also gave an IC50 (A549) of 6.4 µM.

`COc1cccc2c1C(=O)c1c(O)c3c(c(O)c1C2=O)C[C@@](O)(C(=O)CO)C[C@@H]3O[C@H]1C[C@H](N)[C@H](O)[C@H](C)O1` [DOXORUBICIN] gave an IC50 (4T1) of 0.09 µM, an IC50 (HCT-116) of 0.08 µM and an IC50 (HepG2) of 0.13 µM.

Compound `C[C@H]1O[C@@H]2C[C@@H](O)[C@@]1(O)c1c2c(O)c(C(N)=O)c2ncoc12` has an IC50 (4T1) of 5.7 µM, an IC50 (HCT-116) of 6.8 µM and an IC50 (HepG2) of 12.4 µM. For the same compound, the IC50 (A549) was 7.2 µM.

`NC(=O)C1=C(N)C(=O)c2c(O)cccc2C1=O` showed an IC50 (4T1) of 14.7 µM, an IC50 (HCT-116) of 11.6 µM and an IC50 (HepG2) of 8.9 µM. It also gave an IC50 (A549) of 8.4 µM.

With `C[C@H]1O[C@@H]2C[C@@H](O)[C@@]1(O)c1c2c(O)c(C(N)=O)c2nc([C@@H](O)[C@@H](O)CO)oc12` the IC50 (4T1) was 4.3 µM, the IC50 (HCT-116) was 4.4 µM and the IC50 (HepG2) was 5.6 µM. It also gave an IC50 (A549) of 4.8 µM.

Compound `CC(O)c1cccc2c1C(=O)C(N)=C(C(N)=O)C2=O` (stereo unspecified) has an IC50 (4T1) of 1.3 µM, an IC50 (HCT-116) of 2.1 µM and an IC50 (HepG2) of 1.9 µM. It also gave an IC50 (A549) of 0.9 µM.

In the case of `CC(=O)c1cccc2c1C(=O)C(N)=C(C(N)=O)C2=O`, the IC50 (4T1) is reported as 7.6 µM, the IC50 (HCT-116) is reported as 14.8 µM and the IC50 (HepG2) is reported as 6.3 µM. It also gave an IC50 (A549) of 13.5 µM.
